US20170313758A1, “Polypeptides for the Treatment of Angiogenesis or Lymphangiogenesis-Related Diseases” (INSERM (Institut National de la Sante et de la Recherche …, priority 2014, published 2017)

Key:
[1] = system: HMEC endothelial cells; assay: MTT assay, proliferation of HMEC endothelial cells; format: cell-based, human; conditions: treatment for 48 h, FIG. 13
Protocol: (§1) Human microvascular endothelial (HMEC) cells line derived from dermal microvasculature (T. Lawley, Emory University, Atlanta, GA) were maintained in MCDB-131 medium (Gibco, Invitogen) with 10% fetal bovine serum (FBS) (Invitrogen), 2 ml glutamine (Invitrogen), 10 ng/ml endothelial growth factor (Upstate Biotechnology/Millipore), and 1 μg/ml hydrocortisone (Sigma-Aldrich). Primary melanoma M10 cells, established from patient primary nodular melanoma were maintained in RPMI medium (Gibco, Invitogen) with 10% FBS, Hepes 1 M, pyruvate Nas, and glutamine (Invitrogen). Human breast carcinoma MDA-MB-231 cells were maintained in Dulbecco's modified Eagle's medium (DMEM) (Gibco, Invitogen) with 10% FBS (Invitrogen) and 2m1 glutamine (Invitrogen). Melanoma BLM cells (American Type Culture Collection (ATCC Manassas, Va.)) were maintained in DMEM containing 4.5 g/l glucose, 10% FBS, 100 U/ml penicillin and […] streptomycin. HEK293T cells (ATCC) were cultured in DMEM medium (Gibco, Invitogen) supplemented with 10% FBS (Invitrogen), 100 U/ml penicillin, 100 mg/ml streptomycin and 2 ml glutamine (Invitrogen).
As VEGFR-2 has been implicated in regulation of endothelial cells migration/invasion and proliferation processes, we first investigated the effect of EMMPRIN inhibitor peptide (PI) on endothelial cell proliferation. […]

[2] = system: ERK phosphorylation; assay: ERK activation signalling (ERK phosphorylation) in treated cells; format: cell-based; conditions: FIG. 16
Protocol: (§2) No effect on ERK phosphorylation could be observed when the cells were treated with PC (FIGS. 15 and 16).

[3] = target: T1, EMMPRIN/VEGFR-2 interaction (Homo sapiens, UniProt P35968); assay: Immunoprecipitation of EMMPRIN/VEGFR-2 interaction in treated cells; format: cell-based; conditions: FIG. 15
T1 construct: endogenous in cells; HMEC and M10 are the cells used in the neighbouring peptide experiments
Protocol: For immunoprecipitation, cell lysates were incubated with antibodies against targeted proteins and Protein G-sepharose beads (Sigma). Immunoprecipitated proteins were subjected to sodium dodecyl sulphate-polyacrylamide gel electrophoresis then transferred to Nitrocellulose membranes and probed with anti-EMMPRIN mAb (555961, BD-Pharmingen), anti-VEGF (C-1) mAb (Sc-7269, Santa Cruz), anti-VEGFR-2 rabbit pAb (Sc-504, Santa Cruz-) or anti-pVEGFR-2 (Tyr 1175) rabbit mAb (2478, Cell Signaling). The proteins were visualized with ECL reagent (Pierce), and their expression was normalized relative to total cell lysate protein concentration.
as §2

[4] = system: M10 melanoma cells; assay: Modified Boyden chamber invasion assay, M10 melanoma cells; format: cell-based, human; conditions: 500 nM, compared to control PC-treated cells, mean, FIG. 14
Protocol: as §1, with “HEK293T cells (ATCC) were cultured in DMEM medium (Gibco, Invitogen) supplemented with 10% FBS (Invitrogen), 100 U/ml penicillin, 100 mg/ml streptomycin and 2 ml glutamine (Invitrogen).” left out
The in vitro migration (on uncoated filters) and invasion (on coated filters with matrigel, BD Bioscience) were performed using a modified Boyden chamber in 24-well plates and […] pore filter inserts (BD Bioscience). After 24h of incubation, cells were fixed, stained with crystal violet 0.5% and counted under a light microscope. […]

[5] = target: T2, VEGFR-2 (human, UniProt P35968 20-1356); assay: VEGFR-2 immunoprecipitation, EMMPRIN western blot, transfected BLM-EMMPRIN-miRNA cells
T2 construct: Endogenous receptor of human cells (HMEC, M10, MDA-MB-231, BLM); the whole entry is named; also called KDR
Protocol: For immunoprecipitation, cell lysates were incubated with antibodies against targeted proteins and Protein G-sepharose beads (Sigma). […] The proteins were visualized with ECL reagent (Pierce), and their expression was normalized relative to total cell lysate protein concentration.

T1 sequence (P35968 20-1356): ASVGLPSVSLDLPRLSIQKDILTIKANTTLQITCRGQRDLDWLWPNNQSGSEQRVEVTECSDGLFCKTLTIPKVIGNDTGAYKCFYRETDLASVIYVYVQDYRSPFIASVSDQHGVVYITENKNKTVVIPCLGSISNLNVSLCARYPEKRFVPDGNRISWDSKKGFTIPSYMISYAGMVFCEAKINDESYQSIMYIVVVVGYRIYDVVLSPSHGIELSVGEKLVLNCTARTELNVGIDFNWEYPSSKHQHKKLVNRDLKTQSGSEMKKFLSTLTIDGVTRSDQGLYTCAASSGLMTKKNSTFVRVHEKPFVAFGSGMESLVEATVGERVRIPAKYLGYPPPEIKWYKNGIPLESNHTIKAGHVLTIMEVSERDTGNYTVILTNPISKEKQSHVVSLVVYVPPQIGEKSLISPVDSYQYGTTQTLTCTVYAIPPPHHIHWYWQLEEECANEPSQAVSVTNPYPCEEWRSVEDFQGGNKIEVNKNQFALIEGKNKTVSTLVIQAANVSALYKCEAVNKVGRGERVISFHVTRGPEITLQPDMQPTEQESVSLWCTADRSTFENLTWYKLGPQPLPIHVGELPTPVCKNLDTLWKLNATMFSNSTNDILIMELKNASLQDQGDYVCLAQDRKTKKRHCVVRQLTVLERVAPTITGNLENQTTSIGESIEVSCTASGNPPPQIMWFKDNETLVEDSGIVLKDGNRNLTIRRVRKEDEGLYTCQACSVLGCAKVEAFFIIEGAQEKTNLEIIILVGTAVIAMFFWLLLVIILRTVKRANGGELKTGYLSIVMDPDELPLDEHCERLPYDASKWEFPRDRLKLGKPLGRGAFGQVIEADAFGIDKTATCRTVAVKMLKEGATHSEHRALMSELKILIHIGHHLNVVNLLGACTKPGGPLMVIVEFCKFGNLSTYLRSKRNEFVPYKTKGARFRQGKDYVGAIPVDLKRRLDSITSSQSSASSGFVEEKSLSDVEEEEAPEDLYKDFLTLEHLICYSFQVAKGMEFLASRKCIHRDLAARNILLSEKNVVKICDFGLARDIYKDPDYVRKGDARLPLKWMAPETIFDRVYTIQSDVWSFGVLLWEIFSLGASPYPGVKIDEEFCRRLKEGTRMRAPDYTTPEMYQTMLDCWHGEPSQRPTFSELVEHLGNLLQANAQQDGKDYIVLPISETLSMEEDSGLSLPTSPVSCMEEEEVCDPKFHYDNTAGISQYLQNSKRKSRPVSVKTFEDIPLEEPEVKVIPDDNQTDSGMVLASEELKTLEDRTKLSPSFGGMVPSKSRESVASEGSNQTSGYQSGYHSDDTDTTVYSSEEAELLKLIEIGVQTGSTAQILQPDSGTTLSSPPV
T2 sequence (P35968 20-1356 limits assumed): as the sequence (P35968 20-1356) above

Molecule	inhibition of proliferation of HMEC cells [1]	ERK phosphorylation [2]	EMMPRIN/VEGFR-2 interaction ([3]; 100 nM)	EMMPRIN/VEGFR-2 interaction ([3]; 500 nM)	decrease in M10 cell invasion capacity [4]	binding result [5]
PI: EMMPRIN peptide inhibitor (PI); sequence not specified in the text	approx. 50%	significant decrease	able to decrease EMMPRIN/VEGFR-2 interaction	able to decrease EMMPRIN/VEGFR-2 interaction	60%	
EMMPRIN D136A (receptor, Full-length EMMPRIN cDNA mutant transfected into BLM-EMMPRIN-miRNA cells; also called control D136A; negative control D136A mutant) AAGTVFTTVEDLGSKILLTCSLNDSATEVTGHRWLKGGVVLKEDALPGQKTEFKVDSDDQWGEYSCVFPPEPMGTANIQLHGPPRVKAVKSSEHINEGETAMLVCKSESVPPVTAWAWYKITDSEDKALMNGSESRFFVSSSQGRSELHIENLNMEADPGQYRCNGTSSKGSDQAIITLRVCSHLAALWPFLGIVAEVLVLVTIIFIYEKRRKPEDVLDDDDAGSAPLKSSGQHQNDKGKNVRQRNSS						binds
